ChEMBL document CHEMBL3875185, “Structure-anticonvulsant activity studies in the group of (E)-N-cinnamoyl aminoalkanols derivatives monosubstituted in phenyl ring with 4-Cl, 4-CH3 or 2-CH3” (Bioorg Med Chem, 2017)
Calls of active or inactive are those of the source. The rule behind the calls is not given here.

Tests used:
[1] = target: T1, Adenosine receptor A1 (Homo sapiens) (UniProt P30542); test: Displacement of [3H]DPCPX from human recombinant adenosine receptor A1 expressed in CHO cells at 100 uM measured after 60 mins by scintillation counting method relative to control; format: cell-based
T1 sequence (whole entry): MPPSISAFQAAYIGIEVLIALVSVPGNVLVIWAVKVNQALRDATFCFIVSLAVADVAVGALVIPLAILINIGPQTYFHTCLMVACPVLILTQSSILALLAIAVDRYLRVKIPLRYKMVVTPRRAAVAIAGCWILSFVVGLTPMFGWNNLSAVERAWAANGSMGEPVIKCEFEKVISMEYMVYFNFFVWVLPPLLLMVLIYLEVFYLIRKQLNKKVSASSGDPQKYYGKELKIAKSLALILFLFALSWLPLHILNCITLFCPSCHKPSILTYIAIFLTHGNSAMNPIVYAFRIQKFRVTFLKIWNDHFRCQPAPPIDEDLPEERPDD

Mus musculus [2] = test: Neurotoxicity in mouse assessed as induction of motor impairment at 30 mg/kg, ip measured at 0.5 hrs post dose by rotarod method; format: toxicity, organism-based; details: in vivo
Mus musculus [3] = test: Anticonvulsant activity in 6-Hz induced seizure mouse model assessed as restoration of normal activity within 10 secs from stimulation at 100 mg/kg, ip at 32 mA measured at […] post dose; format: functional, organism-based
Mus musculus [4] = test: Anticonvulsant activity in 6-Hz induced seizure mouse model assessed as restoration of normal activity within 10 secs from stimulation at 100 mg/kg, ip at 32 mA measured at 0.5 hrs post dose; format: functional, organism-based
Rattus norvegicus [5] = test: Neurotoxicity in Sprague-Dawley rat assessed as behavioral change at 30 mg/kg, po measured at 2 hrs post dose; format: toxicity, organism-based; details: in vivo
Mus musculus [6] = test: Anticonvulsant activity in ip dosed pentylenetetrazole induced seizure mouse model assessed as no observable episode of clonic convulsion of at least 5 secs by measuring time to peak effect; format: functional
Mus musculus [7] = test: Anticonvulsant activity in ip dosed 6-Hz induced seizure mouse model assessed as restoration of normal activity within 10 secs from stimulation by measuring time to peak effect at 44 mA; format: functional
Mus musculus [8] = test: Anticonvulsant activity in ip dosed maximal electroshock induced seizure mouse model assessed as suppression in hindlimb tonic extension; format: functional
Mus musculus [9] = test: Anticonvulsant activity in ip dosed pentylenetetrazole induced seizure mouse model assessed as no observable episode of clonic convulsion of at least 5 secs; format: functional
[10] = Neurotoxicity in ip dosed mouse; format: toxicity, organism-based; details: in vivo
Rattus norvegicus [11] = test: Anticonvulsant activity in po dosed maximal electroshock induced seizure Sprague-Dawley rat model assessed as suppression in hindlimb tonic extension by measuring time to peak effect; format: functional
Rattus norvegicus [12] = test: Anticonvulsant activity in ip dosed pentylenetetrazole induced seizure Sprague-Dawley rat model assessed as no observable episode of clonic convulsion of at least 5 secs by measuring time to peak effect; format: functional
Rattus norvegicus [13] = test: Anticonvulsant activity in ip dosed maximal electroshock induced seizure Sprague-Dawley rat model assessed as suppression in hindlimb tonic extension; format: functional
Rattus norvegicus [14] = test: Anticonvulsant activity in po dosed maximal electroshock induced seizure Sprague-Dawley rat model assessed as suppression in hindlimb tonic extension; format: functional
[15] = Protection index, ratio of TD50 for neurotoxicity in po dosed Sprague-Dawley rat model to ED50 for po dosed maximal electroshock induced seizure Sprague-Dawley rat model; format: toxicity, organism-based; details: in vivo, read-out: Ratio TD50/ED50
[16] = target: Adrenergic receptor alpha-2 (Rattus norvegicus) (UniProt P22086+P19328+P22909); test: Displacement of [3H]RX 821002 from rat cerebral cortex alpha-2 adrenergic receptor at 100 uM measured after 60 mins by scintillation counting method relative to control
[17] = target: Beta-1 adrenergic receptor (Homo sapiens) (UniProt P08588); test: Displacement of [3H]CGP 12177 from human recombinant beta1 adrenergic receptor expressed in HEK293 cells at 100 uM measured after 60 mins by scintillation counting method relative to control; format: cell-based
Sequence of Beta-1 adrenergic receptor (Homo sapiens) (P08588 whole entry, looked up): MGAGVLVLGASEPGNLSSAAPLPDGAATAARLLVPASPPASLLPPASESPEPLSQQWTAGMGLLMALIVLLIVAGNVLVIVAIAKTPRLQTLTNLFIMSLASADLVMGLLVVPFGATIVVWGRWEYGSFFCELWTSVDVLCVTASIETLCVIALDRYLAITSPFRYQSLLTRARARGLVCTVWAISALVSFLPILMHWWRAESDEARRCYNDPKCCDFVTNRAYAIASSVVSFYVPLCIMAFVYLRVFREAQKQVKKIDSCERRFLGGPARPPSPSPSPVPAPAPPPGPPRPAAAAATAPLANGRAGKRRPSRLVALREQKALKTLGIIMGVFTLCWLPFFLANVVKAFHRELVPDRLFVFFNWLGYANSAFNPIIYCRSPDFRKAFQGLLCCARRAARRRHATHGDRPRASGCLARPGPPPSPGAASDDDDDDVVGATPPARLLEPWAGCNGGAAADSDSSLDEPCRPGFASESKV

[18] = target: D(2) dopamine receptor (Homo sapiens) (UniProt P14416); test: Displacement of [3H]methyl-spiperone from human recombinant dopamine D2S receptor expressed in HEK293 cells at 100 uM measured after 60 mins by scintillation counting method relative to control; format: cell-based
Sequence of D(2) dopamine receptor (Homo sapiens) (P14416 whole entry): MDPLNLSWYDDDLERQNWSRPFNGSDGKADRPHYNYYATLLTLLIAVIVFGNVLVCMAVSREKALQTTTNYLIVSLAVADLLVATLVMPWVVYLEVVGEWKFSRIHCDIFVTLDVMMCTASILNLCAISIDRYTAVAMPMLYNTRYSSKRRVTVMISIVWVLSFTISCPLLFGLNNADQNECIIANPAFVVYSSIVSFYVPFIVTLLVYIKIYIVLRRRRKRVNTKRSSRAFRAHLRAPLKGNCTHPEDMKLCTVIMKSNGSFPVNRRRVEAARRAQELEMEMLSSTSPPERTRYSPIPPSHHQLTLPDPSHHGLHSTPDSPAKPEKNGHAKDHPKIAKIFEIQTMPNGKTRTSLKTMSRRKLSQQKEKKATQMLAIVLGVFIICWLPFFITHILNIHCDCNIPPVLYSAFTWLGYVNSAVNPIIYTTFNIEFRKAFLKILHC

[19] = target: D(3) dopamine receptor (Homo sapiens) (UniProt P35462); test: Displacement of [3H]methyl-spiperone from human recombinant dopamine D3 receptor expressed in CHO cells at 100 uM measured after 60 mins by scintillation counting method relative to control; format: cell-based
Sequence of D(3) dopamine receptor (Homo sapiens) (P35462 whole entry): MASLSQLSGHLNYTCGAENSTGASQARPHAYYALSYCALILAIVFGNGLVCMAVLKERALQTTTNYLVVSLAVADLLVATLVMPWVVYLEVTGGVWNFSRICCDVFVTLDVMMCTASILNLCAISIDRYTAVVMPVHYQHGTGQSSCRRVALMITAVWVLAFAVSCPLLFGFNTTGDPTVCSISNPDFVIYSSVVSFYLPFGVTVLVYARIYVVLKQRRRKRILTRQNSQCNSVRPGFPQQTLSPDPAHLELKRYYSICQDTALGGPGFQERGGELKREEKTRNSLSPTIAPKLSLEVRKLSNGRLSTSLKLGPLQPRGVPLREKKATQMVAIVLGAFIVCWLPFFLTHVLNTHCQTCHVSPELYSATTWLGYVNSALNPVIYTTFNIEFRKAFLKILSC

[20] = target: D(1B) dopamine receptor (Homo sapiens) (UniProt P21918); test: Displacement of [3H]SCH 23390 from human recombinant D5 receptor expressed in GH4 cells at 100 uM measured after 60 mins by scintillation counting method relative to control; format: cell-based
Sequence of D(1B) dopamine receptor (Homo sapiens) (P21918 whole entry): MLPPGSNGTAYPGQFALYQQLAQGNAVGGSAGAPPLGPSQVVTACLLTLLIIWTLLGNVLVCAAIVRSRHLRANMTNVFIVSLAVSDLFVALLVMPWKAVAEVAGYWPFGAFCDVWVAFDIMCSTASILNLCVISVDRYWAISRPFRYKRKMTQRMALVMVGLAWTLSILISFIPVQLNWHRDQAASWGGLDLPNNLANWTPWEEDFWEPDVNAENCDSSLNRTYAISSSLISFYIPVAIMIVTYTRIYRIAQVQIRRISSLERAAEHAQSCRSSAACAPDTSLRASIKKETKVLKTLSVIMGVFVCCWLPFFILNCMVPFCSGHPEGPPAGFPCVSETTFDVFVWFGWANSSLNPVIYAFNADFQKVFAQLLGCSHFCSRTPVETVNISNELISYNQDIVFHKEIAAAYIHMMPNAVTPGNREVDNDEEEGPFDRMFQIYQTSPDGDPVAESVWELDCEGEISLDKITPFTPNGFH

[21] = target: Kappa-type opioid receptor (Rattus norvegicus) (UniProt P34975); test: Displacement of [3H]U 69593 from rat recombinant kappa-opioid receptor expressed in CHO cells at 100 uM measured after 60 mins by scintillation counting method relative to control; format: cell-based
Sequence of Kappa-type opioid receptor (Rattus norvegicus) (P34975 whole entry): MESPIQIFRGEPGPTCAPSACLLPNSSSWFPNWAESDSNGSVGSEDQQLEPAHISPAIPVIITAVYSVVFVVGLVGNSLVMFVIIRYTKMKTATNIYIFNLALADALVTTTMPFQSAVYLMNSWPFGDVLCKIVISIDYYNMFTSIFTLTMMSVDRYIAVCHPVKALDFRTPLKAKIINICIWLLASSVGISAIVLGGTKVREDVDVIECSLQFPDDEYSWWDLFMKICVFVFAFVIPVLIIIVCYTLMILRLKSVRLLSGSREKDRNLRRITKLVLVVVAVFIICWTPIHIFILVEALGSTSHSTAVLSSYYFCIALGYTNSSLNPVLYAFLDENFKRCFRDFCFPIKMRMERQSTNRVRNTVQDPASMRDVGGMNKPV

[22] = target: Prostaglandin E2 receptor EP2 subtype (Homo sapiens) (UniProt P43116); test: Displacement of [3H]PGE2 from human recombinant EP2 receptor expressed in HEK293 cells at 100 uM measured after 120 mins by scintillation counting method relative to control; format: cell-based
Sequence of Prostaglandin E2 receptor EP2 subtype (Homo sapiens) (P43116 whole entry): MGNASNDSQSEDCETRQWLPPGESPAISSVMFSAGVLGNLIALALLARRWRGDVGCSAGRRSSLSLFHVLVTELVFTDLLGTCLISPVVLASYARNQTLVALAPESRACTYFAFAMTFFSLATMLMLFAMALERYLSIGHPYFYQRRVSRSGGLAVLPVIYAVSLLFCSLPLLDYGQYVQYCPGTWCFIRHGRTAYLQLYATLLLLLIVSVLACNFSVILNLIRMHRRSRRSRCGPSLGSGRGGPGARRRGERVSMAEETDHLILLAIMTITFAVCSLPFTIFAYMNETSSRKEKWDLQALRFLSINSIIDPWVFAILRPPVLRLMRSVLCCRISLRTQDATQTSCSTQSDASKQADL

Rattus norvegicus [23] = organism: Rattus norvegicus; test: Displacement of [35S]dATPaS from rat cerebral cortex P2Y receptor at 100 uM measured after 60 mins by scintillation counting method relative to control
[24] = target: T2, 5-hydroxytryptamine receptor 1A (Homo sapiens) (UniProt P08908); test: Displacement of [3H]8-OH-DPAT from human recombinant 5HT1A receptor expressed in HEK293 cells at 100 uM measured after 60 mins by scintillation counting method relative to control; format: cell-based
T2 sequence (whole entry): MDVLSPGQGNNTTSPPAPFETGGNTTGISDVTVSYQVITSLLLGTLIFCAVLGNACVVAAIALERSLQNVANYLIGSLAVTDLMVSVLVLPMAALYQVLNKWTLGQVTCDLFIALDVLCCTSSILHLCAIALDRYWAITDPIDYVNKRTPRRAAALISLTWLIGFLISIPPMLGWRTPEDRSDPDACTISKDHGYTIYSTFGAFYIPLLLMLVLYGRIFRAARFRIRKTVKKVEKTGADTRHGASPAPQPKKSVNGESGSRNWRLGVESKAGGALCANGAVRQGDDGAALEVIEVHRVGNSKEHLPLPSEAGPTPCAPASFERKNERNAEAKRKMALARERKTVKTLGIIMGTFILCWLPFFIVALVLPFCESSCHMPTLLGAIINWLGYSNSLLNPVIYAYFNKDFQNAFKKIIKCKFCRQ

[25] = target: 5-hydroxytryptamine receptor 2B (Homo sapiens) (UniProt P41595); test: Displacement of [125I]DOI from human recombinant 5HT2B receptor expressed in CHO cells at 100 uM measured after 60 mins by scintillation counting method relative to control; format: cell-based
Sequence of 5-hydroxytryptamine receptor 2B (Homo sapiens) (P41595 whole entry): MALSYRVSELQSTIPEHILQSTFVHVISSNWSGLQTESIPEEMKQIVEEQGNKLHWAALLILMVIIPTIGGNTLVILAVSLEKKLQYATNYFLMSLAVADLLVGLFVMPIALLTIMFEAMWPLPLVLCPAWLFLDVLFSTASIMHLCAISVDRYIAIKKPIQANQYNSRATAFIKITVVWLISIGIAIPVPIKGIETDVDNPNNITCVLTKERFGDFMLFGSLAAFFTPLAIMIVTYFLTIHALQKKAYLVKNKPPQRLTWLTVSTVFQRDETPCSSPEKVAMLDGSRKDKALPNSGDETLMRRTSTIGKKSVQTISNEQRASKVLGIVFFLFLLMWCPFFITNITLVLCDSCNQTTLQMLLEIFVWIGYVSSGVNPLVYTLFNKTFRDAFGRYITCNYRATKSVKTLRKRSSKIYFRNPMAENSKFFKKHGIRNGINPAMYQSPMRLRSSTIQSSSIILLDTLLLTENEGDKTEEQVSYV

[26] = target: 5-hydroxytryptamine receptor 5A (Homo sapiens) (UniProt P47898); test: Displacement of [3H]LSD from human recombinant 5HT5A receptor expressed in HEK293 cells at 100 uM measured after 120 mins by scintillation counting method relative to control; format: cell-based
Sequence of 5-hydroxytryptamine receptor 5A (Homo sapiens) (P47898 whole entry): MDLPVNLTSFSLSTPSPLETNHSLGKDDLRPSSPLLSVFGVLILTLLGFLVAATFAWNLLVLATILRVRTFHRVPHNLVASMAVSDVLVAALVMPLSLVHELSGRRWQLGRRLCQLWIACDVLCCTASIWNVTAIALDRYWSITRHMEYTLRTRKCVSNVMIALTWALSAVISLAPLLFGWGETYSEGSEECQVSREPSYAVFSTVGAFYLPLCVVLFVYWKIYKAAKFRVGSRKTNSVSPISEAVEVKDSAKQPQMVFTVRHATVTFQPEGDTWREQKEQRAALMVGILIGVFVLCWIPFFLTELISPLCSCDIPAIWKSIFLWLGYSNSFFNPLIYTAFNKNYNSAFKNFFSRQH

| Compound | inhibition [1] [%] | Activity (Mus musculus [2]) | Activity (Mus musculus [3]) | Activity (Mus musculus [4]) | Activity (Rattus norvegicus [5]) | Time (Mus musculus [6]) [h] | Time (Mus musculus [7]) [h] | ED50 (Mus musculus [8]) [mg/kg] | ED50 (Mus musculus [9]) [mg/kg] | TD50 [10] [mg/kg] | Time (Rattus norvegicus [11]) [h] | Time (Rattus norvegicus [12]) [h] | ED50 (Rattus norvegicus [13]) [mg/kg] | ED50 (Rattus norvegicus [14]) [mg/kg] | selectivity ratio [15] | inhibition [16] [%] | inhibition [17] [%] | inhibition [18] [%] | inhibition [19] [%] | inhibition [20] [%] | also measured |
| --- | --- | --- | --- | --- | --- | --- | --- | --- | --- | --- | --- | --- | --- | --- | --- | --- | --- | --- | --- | --- | --- |
| Cc1ccccc1/C=C/C(=O)N[C@@H](C)CO | 1.3 | Non-Toxic | Active | Active | Non-Toxic | 0.25 | 0.5 | 42.6 | 58.4 | 150 | 1 | 0.25 | 16.3 | 25.8 | > 19.4 | 10.8 | -2.8 | 5 | 7.2 | 8 | inhibition [21]: 14.8%; inhibition [22]: 37.8%; inhibition (Rattus norvegicus [23]): -6.1%; inhibition [24]: 51.2%; inhibition [25]: 79.8%; inhibition [26]: 17.4% |
| CC(O)CNC(=O)/C=C/c1ccc(Cl)cc1 (stereo not drawn) | 10 | Non-Toxic | Active | Active | Non-Toxic | 0.5 | 0.25 | 55.6 | 102 | 180 | 0.5 | 0.5 | 41.9 | 77.3 | 6.47 | 25.1 | 0.7 | 8.7 | 17.4 | 13 | inhibition [21]: 31.6%; inhibition [22]: 29.7%; inhibition (Rattus norvegicus [23]): 15%; inhibition [24]: 76.6%; inhibition [25]: 41.6%; inhibition [26]: 19% |
| CCC(CO)NC(=O)/C=C/c1ccc(Cl)cc1 (stereo not drawn) | -0.4 | Non-Toxic | Active | Active | Non-Toxic | 0.25 | 0.5 | 53.8 | 90.3 | 196 | 0.5 | 0.5 | 21.2 | 46.8 | 5.92 | 34.8 | -2.9 | 1.8 | 18.2 | 12.3 | inhibition [21]: 41.9%; inhibition [22]: 57.6%; inhibition (Rattus norvegicus [23]): 18.1%; inhibition [24]: 28.2%; inhibition [25]: 58.2%; inhibition [26]: 18.7% |
